Data on two molecules can be found in paper PMC6892925, “Development of Novel Silyl Cyanocinnamic Acid Derivatives as Metabolic Plasticity Inhibitors for Cancer Treatment” (Scientific Reports, 2019).

The test system of one data set is WiDr cell line. The data set is described as follows: MTT cell proliferation inhibition assay. Particulars: Homo sapiens, read-out: MTT IC50.
The next data set has as its system MCF7 cell line. In words: MTT cell proliferation inhibition assay. The following applies: Homo sapiens, MCF7, read-out: MTT IC50.
The test system of data set [1] is MCT4 expressing MDA-MB-231 cell line. In words: Seahorse XFe96 mitochondrial stress test (OCR). Type of data set: cell-based, human. Particulars: 30 µM, MDA-MB-231, vs DMSO control. How it is done:
(§1) To assess mitochondrial stress, four parameters including maximal respiration, proton leak, ATP production, and spare respiratory capacity were measured. ATP production via OxPhos is dependent on mitochondrial integrity and can be measured directly via the oxygen consumption rate (OCR). Time-course OCR plots from WiDr and MDA-MB-231 cells were used to calculate 2a and 2b treatment-induced changes in specified parameters following the addition of various mitochondrial targeting agents (Fig. 5A,B). […] Spare respiratory capacity is a value that is not directly linked to mitochondrial damage but represents the cells ability to respond to rapid ATP demands.
(§2) 20,000 cells/well were plated in 96-well Seahorse plates (Agilent, part no. 101085-004) and incubated 16–24 hours at 37 °C at 5% CO2. Flux pack sensors (Agilent, part no. 102416-100) were hydrated with XF calibrant solution (Agilent, part no. 100840-000) overnight at 37 °C in a non-CO2 incubator. The serum free assay media was prepared from Seahorse base medium (Agilent, part no. 102353-100) enriched with glutamine (1 mM) and sodium pyruvate (1 mM). The pH of the media was adjusted to 7.4. For glycolysis stress test the serum free assay media was used. For the mitochondrial stress test glucose (10 mM) was added to make an enriched serum free assay media. For both stress tests an 8X stock concentration of test compounds in their respective media was prepared for microplate injections in port A. Stock solutions of glucose (90 mM), oligomycin (10 μM), and 2-deoxyglucose (Chem Impex, 550 mM) were prepared such that their final working concentrations are 10 mM, 1 μM and 50 mM, respectively, for glycolysis stress test. For mitochondrial stress test, stock solutions of oligomycin (9 µM), FCCP (2.5–10 µM, cell line dependent), rotenone + antimycin A (5.5 µM) were prepared such that their final concentrations were 1 µM, 0.25–1 µM, and 0.5 µM, respectively in the enriched test media. Under glycolytic stress test, the cells were treated with test compounds, followed by the addition of glucose, oligomycin and 2-deoxyglucose at 14.29, 33.8, 53.35, 72.87 minutes, respectively. Under mitochondrial stress test, cells were treated with test compounds, followed by the addition of oligomycin, FCCP, and rotenone + antimycin A, at 14.29, 33.8, 53.35, 72.87 minutes, respectively. Extracellular acidification rates (ECAR) and oxygen consumption rates (OCR) were recorded in real-time for glycolysis and mitochondrial stress tests, respectively, using a Seahorse XFe96® analyzer (Agilent). The parameters related to glycolytic and mitochondrial functions were calculated utilizing the Wave 2.4.0 software (Agilent). ATP rate assay experiment was performed using manufactures (Agilent) protocol, and respective mitochondrial and glycolytic ATP rates were normalized to protein (BCA assay) and calculated using Wave 2.4.0 software.

Data set [2] relates to MCT1 expressing WiDr cell line. The data set is described as follows: Seahorse XFe96 mitochondrial stress test (OCR). It counts as cell-based, human. The following applies: 30 µM, vs DMSO control. The method, then: as §1, §2
In the next data set the test system is healthy CD-1 mice. In words: In vivo systemic toxicity study. Details: species or system mouse. The following applies: once daily 25 mg/kg, 16-day treatment period. How it is done:
Based on in vitro cell proliferation inhibition, MCT1 inhibition, and effects on glycolysis/mitochondrial function, we advanced candidate compounds 2a and 2b for translational in vivo safety and efficacy studies. […] Next, an MCT1 expressing WiDr tumor xenograft model was chosen to evaluate the efficacy of 2a and 2b. After tumors were inoculated, they were allowed to reach ~150 mm^3 volume, and mice were randomly divided into three groups. Group-1 was administered 25 mg/kg (i.p.) of compound 2a, group-2 was administered with 25 mg/kg (i.p.) of 2b, and group-3 was designated as control group and given an injection of vehicle. Treatment was continued for 16 days, and tumor volumes were recorded. […] During the two-week treatment period, there was no significant loss of body weights in mice between treated and control groups. […] At the end of the study, all the tumors were resected, and the tumor mass was weighed (Fig. 6D).
Five-week-old healthy CD-1 mice (Charles River) were obtained and acclimatized for one week prior to treatment. Mice (n = 6) were grouped randomly based on average body weight. […] Mice body weights were recorded daily as a proxy for animal health and were also examined for proper activity and grooming patterns. […]

Experimental for MCF7 cell line: Human triple-negative breast cancer MDA-MB-231 cells (ATCC) were grown in DMEM supplemented with 10% FBS (Atlanta Biologicals) and penicillin-streptomycin (50U/ml, 50 µg/ml, Invitrogen). Human colorectal adenocarcinoma WiDr cells (ATCC) were cultured in MEM medium supplemented with 10% FBS and penicillin-streptomycin. […] Murine metastatic breast cancer 4T1 cells were grown in RPMI-1640 supplemented with 10% FBS and penicillin-streptomycin. Human estrogen receptor positive breast cancer MCF7 cells (Masonic Cancer Center, University of Minnesota) were grown in MEM supplemented with 6% FBS, EGF (0.01 µg/ml), NEAA, HDC (1 µg/ml), insulin (10 µg/ml), HEPES (12 mM) and sodium pyruvate (1 mM).
Cell proliferation inhibition was evaluated using 3-(4,5-dimethylthiazol-2-yl)-2,5-diphenyl tetrazolium bromide (MTT) assay as reported previously[19].

Regarding `CC(C)(C)[Si](Oc1ccc(/C=C(\C#N)C(=O)O)cc1)(c1ccccc1)c1ccccc1` [2a], the IC50 with WiDr cell line was 41 ± 2 µM. The IC50 in the data set with MCF7 cell line is 39 ± 3 µM. In data set [1], the “FCCP induced maximal respiration (OCR)” value was “significantly decreased”, the “oxygen consumption for mitochondrial ATP production (OCR)” value (from here on “oxygen consumption”) was “significantly decreased”, the “proton leak (OCR)” value is given as “significant increase” and the “spare respiratory capacity (OCR)” value was “significant decrease”. In data set [2], the “FCCP induced maximal respiration (OCR)” value is listed as “significantly decreased”, the “oxygen consumption” value was “significantly decreased”, the “proton leak (OCR)” value was “significant increase” and the “spare respiratory capacity (OCR)” value is listed as “significant decrease”. Also, in the data set on healthy CD-1 mice, the “systemic toxicity / tolerability (body weight gains, behavior, grooming)” value is listed as “well tolerated”.

Regarding `CC(C)(C)[Si](OCCOc1ccc(/C=C(\C#N)C(=O)O)cc1)(c1ccccc1)c1ccccc1` [2b], the 50% inhibitory concentration (IC50) with WiDr cell line is 6 ± 1 µM. Further, in the data set with MCF7 cell line, the concentration for half-maximal inhibition (IC50) stood at 35 ± 3 µM. In addition, in data set [1], the “FCCP induced maximal respiration (OCR)” value is “significantly decreased”, the “oxygen consumption” value was “significantly decreased”, the “proton leak (OCR)” value is given as “significant increase” and the “spare respiratory capacity (OCR)” value was “significant decrease”. Moreover, in data set [2], the “FCCP induced maximal respiration (OCR)” value is reported as “significantly decreased”, the “oxygen consumption” value is reported as “significantly decreased”, the “proton leak (OCR)” value is recorded as “significant increase” and the “spare respiratory capacity (OCR)” value is given as “significant decrease”. In addition, the “systemic toxicity / tolerability (body weight gains, behavior, grooming)” value in the data set on healthy CD-1 mice is listed as “well tolerated”.
